The inhibition is the share of the control response that was lost under treatment. A high value points to strong suppression.

The test system of assay [1] is LTD4 induced bronchoconstriction. Description: In vivo inhibition of bronchospasm induced in guinea pigs by exogenously administered leukotrienes (Example 11). Further details: species or system guinea pig (male Hartley). The settings on record: 10 minutes before induction of bronchospasm (LTD4), guinea pig; for inhibition in vivo at 25 mg/kg / inhibition in vivo at 50 mg/kg: Cavia porcellus, read-out: % Inhibition of Max AUC.

In assay [2] the test system is 5-HETE synthesis by rat glycogen elicited polymorphonuclear leukocytes. Nature of the assay: Inhibition of synthesis of 5-HETE by rat glycogen elicited polymorphonuclear leukocytes (Example 10). In kind it is cell-based, rat (female Wistar). The settings on record: Leukocyte, [14C]5-HETE synthesis, rat PMN; for IC50: read-out: 50% Inhibitory Concentration (IC50). The protocol:
(§1) The assay is carried out as follows:
Peritoneal PMN are obtained from female Wistar rats (150-250 g) that received an i.p. injection of 6% glycogen (10 ml). After 24 hours, rats are killed by CO2 asphyxiation and peritoneal cells are harvested by peritoneal lavage using Ca^++ and Mg^++ free Hanks' balanced salt solution (HBSS). The peritoneal exudate is centrifuged at 400 g for 10 minutes. After centrifugation, the lavaged fluid is removed and the cell pellet is […] in HBSS containing Ca^++ and Mg^++ and 10 mM L-cystein at a concentration of 2×10^7 cells/ml. To 1 ml portions of cell suspens, test drugs or vehicle are added and incubated at 37° C. for 10 minutes. Following this preincubation, the calcium ionophore (10 μM), A23187, is added together with 0.5 μCi [^14 C] arachidonic acid and further incubated for 10 minutes. The reaction is stopped by the addition of ice cold water (3 ml) and acidifying to pH 3.5. Lipoxygenase products are then extracted twice into diethyl ether. The pooled ether extracts are evaporated to dryness under nitrogen and the residue is redissolved in a small volume of methanol and spotted on aluminum backed pre-coated thin layer chromatographic plates. The samples are then co-chromatographed with authentic reference 5-HETE in the solvent system--hexane:ether:acetic acid (50:50:3). After chromatography, the areas associated with 5-HETE standard are identified by autoradiography, cut out and quantitated by liquid scintillation.
Results are expressed as % inhibition of [^14 C]5-HETE synthesis. [formula]

For assay [3], the system named is ovalbumin induced bronchospasm. Description: In vivo inhibition of ovalbumin induced bronchospasm in sensitized guinea pigs mediated by endogenous mediators (Example 12). Further details: species or system guinea pig (male Hartley). The following applies: Cavia porcellus, 10 minutes before ovalbumin challenge, guinea pig, read-out: % Inhibition of Max AUC. The method, then: The assay of this Example measures the in vivo ability of the compounds of the invention to inhibit the bronchospasm induced in guinea pigs by endogenous mediators of the bronchoconstriction.
as §1
Male Hartley strain guinea pigs weighing 250-350 g are sensitized to chicken ovalbumin (OA) (10 mg i.p.) on days 1 and 3 and used starting on day 26. The animals are anesthetized with pentobarbital sodium (50 mg/kg, i.p.), bilateral vagotomy is performed, and the jugular vein is cannulated for injection of drugs and the carotid artery for monitoring blood pressure. The trachea is cannulated for artificial ventilation by miniature Starling pump and for indirect measurement of respiratory volume changes as described, infra. Succinylcholine (2 mg/kg, i.v.) is administered to arrest spontaneous respiration. A cyclooxygenase inhibitor, indomethacin (10 mg/kg in tris buffer, i.v. at 9 min.) is administered to shunt arachidonic metabolism to lipoxygenase pathways. One minute later, chlorpheniramine (1.0 mg/kg in saline, i.v.) is given to attenuate the histaminic component of anaphylactic bronchoconstriction. Test drugs (dissolved in propylene glycol, polyethylene glycol or saline) are administered either intraduodenally or by aerosol at 2 or 10 minutes before antigen challenge. Anaphylactic bronchoconstriction is induced by administration by breaths of aerosolized OA (1%) or by intravenous administration of 0.1-0.3 mg/kg OA in saline. Control animals receive solvent (2 ml/kg i.d. or appropriate aerosol) in place of drug.
Respiratory volume changes are determined by a calibrated piston whose travel is recorded, via a linear transducer, on a Beckman Dynograph recorder. Maximal bronchoconstrictor volume is determined by clamping off the trachea at the end of the experiment. Overflow volumes at minutes 1, 3 and 5 are obtained from the recorded charts.
Area under the volume overflow curve (AUC) is estimated, using the overflow values at 1, 3 and 5 minutes, and expressed as a percentage of the maximal overflow AUC (equation 1): [formula] Drug effects are reported as percent inhibition of % max AUC values obtained from appropriate control animals (equation 2): [formula] Students t-test for unpaired data is used to determine statistical significance. Dose response curves are generated and ED50 doses are interpolated from the regression lines.
Results for compounds of the invention in this assay, using LTD4 for induction of bronchospasm, are given below: […]

Counter-ions that a name gives are not always drawn. Like-named read-outs stand apart in the source and are kept apart here. Where only a bound is given, the exact number is not on record here.

For the compound `CCOC(=O)CC(=O)NCC(O)c1cccc(OCc2ccc3ccccc3n2)c1` (racemic) [Example 7C, 3-[[2-Hydroxy-2-[3-(2-quinolinylmethoxy)phenyl]ethyl]amino]-3-oxopropanoicacid, ethyl ester], the inhibition in vivo at 25 mg/kg in assay [1] (25 mg/kg intraduodenal) amounted to 24.9%.
`CCN(CC)C(=O)N(C)C[C@H](O)c1cccc(OCc2nc3ccccc3s2)c1` [Example 1, (1R)-1-[3-[(2-Benzthiazoyl)-methoxy]phenyl]-2-(N-methyl-N-diethylcarbamoyl)amino ethanol]: in assay [2], the inhibition at 50 µM was > 50% and the IC50 was found to be 40.4 µM. In assay [1] (50 mg/kg intraduodenal), the inhibition in vivo at 50 mg/kg worked out at 59.2%.
With `CCN(CC)C(=O)N(C)C[C@H](O)c1cccc(OCc2nc3ccccc3n2C)c1` [Example 2A, (1R)-1-[3-[(1-Methyl-2-benzimidazoyl)methoxy]phenyl]-2-(N-methyl-N-diethylcarbamoyl)amino ethanol], the inhibition at 50 µM in assay [2] is > 50%. Moreover, the IC50 in assay [2] was determined as 16.4 µM. The inhibition in vivo at 50 mg/kg in assay [1] (50 mg/kg intraduodenal) turned out to be 77.2%; in assay [3] (50 mg/kg intraduodenal), 83.4%.
In the case of `CCN(CC)C(=O)N(C)C[C@H](O)c1cccc(OCc2ccc3ccccc3n2)c1` [Example 2B, (1R)-1-[3-[(2-Quinolinyl)methoxy]phenyl]-2-(N-methyl-N-diethylcarbamoyl)amino ethanol], the inhibition in vivo at 50 mg/kg in assay [3] (50 mg/kg intraduodenal) amounted to 75.8%.
For the compound `CCC(=O)N(C)C[C@H](O)c1cccc(OCc2nc3ccccc3n2C)c1` [Example 2C, (1R)-1-[3-[(1-Methyl-2-benzimidazoyl)methoxy]phenyl]-2-(N-methyl-N-propanoyl)amino ethanol], the inhibition at 50 µM in assay [2] is < 50%. Besides, the results for the inhibition in vivo at 50 mg/kg in assay [1] (50 mg/kg intraduodenal) and in assay [3] (50 mg/kg intraduodenal) were 63.9% and 65.6%, respectively.
Consider `CN(C[C@H](O)c1cccc(OCc2ccc3ccccc3n2)c1)C(=O)c1ccncc1` [Example 2D, (1R)-1-[3-[(2-Quinolinyl)methoxy]phenyl]-2-[N-methyl-N-(4-pyridinoyl)]amino ethanol], for which, in assay [2], the inhibition at 50 µM is < 50%. Moreover, the inhibition in vivo at 50 mg/kg in assay [1] (50 mg/kg intraduodenal) was found to be 43.9%.
Take `CN(C[C@H](O)c1cccc(OCc2ccc3ccccc3n2)c1)C(=O)N(c1ccccc1)c1ccccc1` [Example 2E, (1R)-1-[3-[(2-Quinolinyl)methoxy]phenyl]-2-(N-methyl-N-diphenylcarbamoyl)amino ethanol, hydrochloride]: the inhibition at 50 µM in assay [2] was > 50%. The inhibition in vivo at 50 mg/kg in assay [1] (50 mg/kg intraduodenal) stood at 21%.
As for `CN(C)C(=O)N(C)C[C@H](O)c1cccc(OCc2ccc3ccccc3n2)c1` [Example 2F, (1R)-1-[3-[(2-Quinolinyl)methoxy]phenyl]-2-(N-methyl-N-dimethylcarbamoyl)amino ethanol], in assay [2], the inhibition at 50 µM was > 50%. Also, the inhibition in vivo at 50 mg/kg in assay [1] (50 mg/kg intraduodenal) amounted to 92.6%.
For the compound `CCN(CC)C(=O)N(CC)C[C@H](O)c1cccc(OCc2ccc3ccccc3n2)c1` [Example 2G, (1R)-1-[3-[(2-Quinolinyl)methoxy]phenyl]-2-(N-ethyl-N-diethylcarbamoyl)amino ethanol], the inhibition at 50 µM in assay [2] was > 50%. Moreover, the inhibition in vivo at 50 mg/kg in assay [1] (50 mg/kg intraduodenal) was 65.1%.
As to `CN(C)S(=O)(=O)N(C)C[C@H](O)c1cccc(OCc2ccc3ccccc3n2)c1` [Example 2H, (1R)-1-[3-[(2-Quinolinyl)methoxy]phenyl]-2-(N-methyl-N-dimethylsulfamoyl)amino ethanol], the inhibition in vivo at 50 mg/kg in assay [1] (po, 50 mg/kg peroral) came to 25.4%; in assay [1] (50 mg/kg intraduodenal), 56%; in assay [3] (50 mg/kg intraduodenal), 2.5%.
For the compound `COC(=O)[C@@H]1CCCN1C(=O)N(C)C[C@H](O)c1cccc(OCc2ccc3ccccc3n2)c1` [Example 2I, (S)-1-[[[(R)-2-Hydroxy-2-[3-(2-quinolinylmethoxy)phenyl]ethyl]methylamino]carbonyl]-2-pyrrolidine carboxylic acid, methyl ester, hydrochloride], the inhibition in vivo at 50 mg/kg in assay [1] (50 mg/kg intraduodenal) was 71.2%; in assay [3] (50 mg/kg intraduodenal), 22.5%.
For `CCN(CC)C(=O)N(C)C[C@@H](O)c1cccc(OCc2ccc3ccccc3n2)c1` [Example 2J, (1S)-1-[3-[(2-Quinolinyl)methoxy]phenyl]-2-(N-methyl-N-diethylcarbamoyl)amino ethanol], the inhibition in vivo at 25 mg/kg in assay [3] (25 mg/kg intraduodenal) is 81.2%.
As for `CCOC(=O)N(C)C[C@H](O)c1cccc(OCc2ccc3ccccc3n2)c1` [Example 2K, (1R)-1-[3-[(2-Quinolinyl)methoxy]phenyl]-2-(N-methyl-N-ethylcarboxylate)amino ethanol], the inhibition in vivo at 50 mg/kg in assay [1] (50 mg/kg intraduodenal) was 70.6%.
Take `CCOC(=O)NCC(O)c1cccc(OCc2ccc3ccccc3n2)c1` (stereo not shown) [Example 2L, 1-[3-[(2-Quinolinyl)methoxy]phenyl]-2-(N-ethylcarboxylate)amino ethanol]: the inhibition in vivo at 25 mg/kg in assay [1] (25 mg/kg intraduodenal) is 35.6%.
Consider `CCNC(=O)N(C)C[C@H](O)c1cccc(OCc2ccc3ccccc3n2)c1` [Example 3], for which the inhibition in vivo at 25 mg/kg in assay [1] (25 mg/kg intraduodenal) turned out to be 94.9%. For the same compound, the inhibition in vivo at 50 mg/kg is 81.7% in assay [1] (50 mg/kg intraduodenal) and 46.4% in assay [3] (po, 50 mg/kg peroral).
As to `CCNC(=O)O[C@@H](CN(C)C(=O)NCC)c1cccc(OCc2ccc3ccccc3n2)c1` [Example 5, Ethylcarbamic acid (1R)-2-[[(ethylamino)carbonyl]methylamino]-1-[3-(2-quinolinylmethoxy)phenyl]ethyl ester, hydrochloride], the inhibition in vivo at 50 mg/kg in assay [1] (po, 50 mg/kg peroral) came to 18.6%; in assay [1] (50 mg/kg intraduodenal) it was 54.2%; in assay [3] (50 mg/kg intraduodenal), 80.2%.
`O=C(NCC(O)c1cccc(OCc2ccc3ccccc3n2)c1)c1ccccn1` (stereo not shown) [Example 6, N-[2-Hydroxy-2-[3-(2-quinolinylmethoxy)phenyl]ethyl]-2-pyridine carboxamide]: the inhibition in vivo at 25 mg/kg in assay [1] (25 mg/kg intraduodenal) amounted to 19.8%.
On the same count and under the same terms, the value for `O=C(NCC(O)c1cccc(OCc2ccc3ccccc3n2)c1)c1cccs1` (stereo not shown) [Example 7B, N-[2-Hydroxy-2-[3-(2-quinolinylmethoxy)phenyl]ethyl]-2-thiophene carboxamide] was 81.9%.
Take `C#CCN(C)C[C@H](O)c1cccc(OCc2ccc3ccccc3n2)c1` [Example 8, α-[[Methyl-(2-propynyl)amino]methyl]-3-(2-quinolinylmethoxy)benzene methanol]: in assay [1] (25 mg/kg intraduodenal), the inhibition in vivo at 25 mg/kg was found to be 41.2%.
Consider `O=S(=O)(NCC(O)c1cccc(OCc2ccc3ccccc3n2)c1)C(F)(F)F` (stereo not shown) [Example 9, 1,1,1-Trifluoro-N-[2-hydroxy-2-[3-(2-quinolinylmethoxy)phenyl]ethyl]methanesulfonamide], for which the inhibition in vivo at 25 mg/kg in assay [1] (po, 25 mg/kg peroral) came out at 75.6%; in assay [1] (25 mg/kg intraduodenal) it was 84.8%.
For “N-[2-Hydroxy-2-[3-(2-quinolinyl)phenyl]ethyl]benzamide [Example 7A]”, in assay [1] (25 mg/kg intraduodenal), the “% Inhibition of Max AUC” value was determined as 18.1%.

The values above are taken from US4876346A, “Quinoline compounds” (American Home Products Corporation, priority 1986, dated 1989).
